Assay results published in patent US20200181104A1, “SSAO INHIBITORS AND USES THEREOF” (METACRINE, INC., priority 2018, published 2020).
Where a name gives a salt, the structure may show the parent alone.

Molecular target: T1, Recombinant Human SSAO/VAP-1/AOC3 (Homo sapiens, UniProt Q16853)
T1 construct: purchased R&D systems 3957-AO
T1 sequence (Q16853 1-763): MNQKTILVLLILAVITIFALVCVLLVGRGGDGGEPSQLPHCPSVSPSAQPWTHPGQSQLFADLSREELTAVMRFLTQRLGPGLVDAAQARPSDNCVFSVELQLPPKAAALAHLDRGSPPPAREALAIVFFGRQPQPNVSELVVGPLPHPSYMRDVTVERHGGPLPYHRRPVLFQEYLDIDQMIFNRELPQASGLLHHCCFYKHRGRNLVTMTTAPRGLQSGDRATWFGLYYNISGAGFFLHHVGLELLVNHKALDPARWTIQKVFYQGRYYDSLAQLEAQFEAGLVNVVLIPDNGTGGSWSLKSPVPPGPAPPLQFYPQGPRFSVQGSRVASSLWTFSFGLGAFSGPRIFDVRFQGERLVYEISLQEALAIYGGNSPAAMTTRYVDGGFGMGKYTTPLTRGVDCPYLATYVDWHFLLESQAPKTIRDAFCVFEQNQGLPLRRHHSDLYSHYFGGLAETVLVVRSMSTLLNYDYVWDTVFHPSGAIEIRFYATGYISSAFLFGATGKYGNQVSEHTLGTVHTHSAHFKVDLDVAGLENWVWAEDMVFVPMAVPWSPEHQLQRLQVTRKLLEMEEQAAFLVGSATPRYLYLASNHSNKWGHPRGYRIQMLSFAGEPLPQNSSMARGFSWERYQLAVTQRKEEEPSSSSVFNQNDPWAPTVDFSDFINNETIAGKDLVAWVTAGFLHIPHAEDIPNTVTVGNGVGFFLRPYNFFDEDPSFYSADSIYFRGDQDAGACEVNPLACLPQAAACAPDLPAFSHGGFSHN
Experiment: Human Semicarbazide-Sensitive Amine Oxidase (SSAO) Assay
Format: biochemical
Details: recombinant enzyme, 30 minutes preincubation at 37° C., benzylamine substrate, Amplex Ultra Red/HRP fluorescence
Description: Compounds were dissolved in DMSO to provide a Concentration Response Curve (CRC; at 500 times the final concentration) over a range of 6-10 dilutions.
Recombinant Human SSAO/VAP-1/AOC3 (R&D systems; Catalog #3957-AO) was used to screen compound potency in vitro, according to previously described methods (J Pharmacol Exp Ther. 2013 November; 347(2):365-74). SSAO enzyme was suspended in 50 mM HEPES buffer to a working concentration of 2.5 μg/ml and 40 μL of this enzyme mixture was then added to each well of a F16 Black Maxisorp 96 well Plate (Nunc, Catalog #475515). Ten microliters of each test compound (at 5 times the final concentration) were added to each well, resulting in a final well volume of 50 μL of the enzyme and inhibitor mixture. The compounds were preincubated with the enzyme for 30 minutes at 37° C., prior to the addition of a 40 μL volume of Amplex Ultra Red (125 uM AUR; Molecular Probes, Catalog # A36006)/Horseradish peroxidase (2.5 U/ml HRP; Sigma-Aldrich Catalog # P8375) oxidase detection reagent containing cytochrome C ([…]; Sigma-Aldrich Catalog # C7752). Cytochrome C was included in the AUR/HRP detection mixture to reduce the background fluorescence that can occur via the spontaneous redox reaction between AUR and HRP. The SSAO enzyme reaction was then initiated by adding 10 μL of the SSAO substrate, benzylamine (Sigma-Aldrich Catalog # B5136), and SSAO activity was measured in kinetic mode over a 30-120 minute sampling period (excit. 544 nm; emit 590 nm; cut off 570 nm; medium gain) to obtain IC50 values for enzyme activity in each treatment well.

IC50, ≤ 0.01 µM:
NC/C(=C\F)COc1ccc(C23CCC(C(=O)NCCC(=O)N4CCOCC4)(CC2)CC3)cc1 [Compound 2.68, (E)-4-(4-((2-(aminomethyl)-3-fluoroallyl)oxy)phenyl)-N-(3-morpholino-3-oxopropyl)bicyclo[2.2.2]octane-1-carboxamide]
COCCNC(=O)C12CC(c3ccc(OC/C(=C/F)CN)cc3)(C1)C2 [Compound 3.03, (E)-3-(4-((2-(aminomethyl)-3-fluoroallyl)oxy)phenyl)-N-(2-methoxyethyl)bicyclo[1.1.1] pentane-1-carboxamide]
CC(C)N(CCO)C(=O)C12CCC(c3ccc(OC/C(=C/F)CN)cc3)(CC1)CC2 [Compound 2.38, (E)-4-(4-((2-(aminomethyl)-3-fluoroallyl)oxy)phenyl)-N-(2-hydroxyethyl)-N-isopropylbicyclo[2.2.2]octane-1-carboxamide]
COc1cnc(CNC(=O)C23CCC(c4ccc(OC/C(=C/F)CN)cc4)(CC2)CC3)cn1 [Compound 2.160, (E)-4-(4-((2-(aminomethyl)-3-fluoroallyl)oxy)phenyl)-N-((5-methoxypyrazin-2-yl)methyl)bicyclo[2.2.2]octane-1-carboxamide]
CC(C)CNC(=O)C12CCC(c3ccc(OC/C(=C/F)CN)cc3)(CC1)CC2 [Compound 2.88, (E)-4-(4-((2-(aminomethyl)-3-fluoroallyl)oxy)phenyl)-N-isobutylbicyclo[2.2.2]octane-1-carboxamide]
CO[C@H]1C[C@H](CNC(=O)C23CCC(c4ccc(OC/C(=C/F)CN)cc4)(CC2)CC3)C1 [Compound 2.145, 4-(4-(((E)-2-(aminomethyl)-3-fluoroallyl)oxy)phenyl)-N-(((1r,3r)-3-methoxycyclobutyl)methyl) bicyclo[2.2.2]octane-1-carboxamide]
CC(C)(CO)CNC(=O)C12CCC(c3ccc(OC/C(=C/F)CN)cc3)(CC1)CC2 [Compound 2.77, (E)-4-(4-((2-(aminomethyl)-3-fluoroallyl)oxy)phenyl)-N-(3-hydroxy-2,2-dimethylpropyl)bicyclo[2.2.2] octane-1-carboxamide]
NC/C(=C\F)COc1ccc(C23CCC(C(=O)NCC4CCOCC4)(CC2)CC3)cc1 [Compound 2.20]
NC/C(=C\F)COc1ccc(C23CCC(C(=O)NCc4cncc(C(F)(F)F)c4)(CC2)CC3)cc1 [Compound 2.159, (E)-4-(4-((2-(aminomethyl)-3-fluoroallyl)oxy)phenyl)-N-((5-(trifluoromethyl)pyridin-3-yl)methyl)bicyclo[2.2.2]octane-1-carboxamide]
COCCOCCNC(=O)C12CCC(c3ccc(OC/C(=C/F)CN)cc3)(CC1)CC2 [Compound 2.32, (E)-4-(4-((2-(aminomethyl)-3-fluoroallyl)oxy)phenyl)-N-(2-(2-methoxyethoxy)ethyl) bicyclo[2.2.2]octane-1-carboxamide]
NC/C(=C\F)COc1ccc(C23CCC(C(=O)NCCCCl)(CC2)CC3)cc1 [Compound 2.26, (E)-4-(4-((2-(aminomethyl)-3-fluoroallyl)oxy)phenyl)-N-(3-chloropropyl)bicyclo[2.2.2] octane-1-carboxamide]
CC1(NC(=O)C23CCC(c4ccc(OC/C(=C/F)CN)cc4)(CC2)CC3)CCCOC1 (stereo not shown) [Compound 2.65, (E)-4-(4-((2-(aminomethyl)-3-fluoroallyl)oxy)phenyl)-N-(3-methyltetrahydro-2H-pyran-3-yl)bicyclo[2.2.2]octane-1-carboxamide]
NC/C(=C\F)COc1ccc(C23CCC(C(=O)NC4CC(F)(F)C4)(CC2)CC3)cc1 [Compound 2.135, (E)-4-(4-((2-(aminomethyl)-3-fluoroallyl)oxy)phenyl)-N-(3,3-difluorocyclobutyl)bicyclo[2.2.2] octane-1-carboxamide]
CC1(C)CC(NC(=O)C23CCC(c4ccc(OC/C(=C/F)CN)cc4)(CC2)CC3)CCO1 (stereo not shown) [Compound 2.42, (E)-4-(4-((2-(aminomethyl)-3-fluoroallyl)oxy)phenyl)-N-(2,2-dimethyltetrahydro-2H-pyran-4-yl)bicyclo[2.2.2]octane-1-carboxamide]
NC/C(=C\F)COc1ccc(C23CCC(C(=O)NCCN4CCOCC4)(CC2)CC3)cc1 [Compound 2.75, (E)-4-(4-((2-(aminomethyl)-3-fluoroallyl)oxy)phenyl)-N-(2-morpholinoethyl)bicyclo[2.2.2] octane-1-carboxamide]
CO[C@H](C)CNC(=O)C12CCC(c3ccc(OC/C(=C/F)CN)cc3)(CC1)CC2 [Compound 2.123, (R,E)-4-(4-((2-(aminomethyl)-3-3-fluoroallyl)oxy)phenyl)-N-(2-methoxypropyl)bicyclo[2.2.2] octane-1-carboxamide]
COCCOC12CCC(c3ccc(OC/C(=C/F)CN)cc3)(CC1)CC2 [Compound 8.03, (E)-3-Fluoro-2-((4-(4-(2-methoxyethoxy)bicyclo[2.2.2]octan-1-yl)phenoxy)methyl)prop-2-en-1-amine Hydrochloride]
C[C@H]1COCCN1C(=O)C12CCC(c3ccc(OC/C(=C/F)CN)cc3)(CC1)CC2 [Compound 2.22, (S,E)-(4-(4-((2-(aminomethyl)-3-fluoroallyl)oxy)phenyl)bicyclo[2.2.2]octan-1-yl)(3-methylmorpholino) methanone]
NC/C(=C\F)COc1ccc(C23CCC(C(=O)N4CC(C(=O)O)C4)(CC2)CC3)cc1 [Compound 2.13, (E)-1-(4-(4-((2-(aminomethyl)-3-fluoroallyl)oxy)phenyl)bicyclo[2.2.2]octane-1-carbonyl)azetidine-3-carboxylic acid]
NC/C(=C\F)COc1ccc(C23CCC(C(=O)NCC4(O)CCC4)(CC2)CC3)cc1 [Compound 2.96, (E)-4-(4-((2-(aminomethyl)-3-fluoroallyl)oxy)phenyl)-N-((1-hydroxycyclobutyl)methyl) bicyclo[2.2.2]octane-1-carboxamide]
NC/C(=C\F)COc1ccc(C23CCC(C(=O)NC4CCCOC4)(CC2)CC3)cc1 (stereo not shown) [Compound 2.64, (E)-4-(4-((2-(aminomethyl)-3-fluoroallyl)oxy)phenyl)-N-(tetrahydro-2H-pyran-3-yl)bicyclo[2.2.2]octane-1-carboxamide]
NC/C(=C\F)COc1ccc(C23CCC(C(=O)N4CCN(CC(F)(F)F)CC4)(CC2)CC3)cc1 [Compound 2.30, (E)-(4-(4-((2-(aminomethyl)-3-fluoroallyl)oxy)phenyl)bicyclo [2.2.2]octan-1-yl)(4-(2,2,2-trifluoroethyl)piperazin-1-yl)methanone]
NC/C(=C\F)COc1ccc(C23CCC(C(=O)NC4CCN(c5ccccn5)CC4)(CC2)CC3)cc1 [Compound 2.117, (E)-4-(4-((2-(aminomethyl)-3-fluoroallyl)oxy)phenyl)-N-(1-(pyridin-2-yl)piperidin-4-yl)bicyclo[2.2.2]octane-1-carboxamide]
NC/C(=C\F)COc1ccc([C@]23CC4CC(C2)[C@H](C(=O)NC2CCOCC2)C(C4)C3)cc1 (single isomer, unassigned) [Compound 6.03, anti-5-(4-(((E)-2-(Aminomethyl)-3-fluoroallyl)oxy)phenyl)-N-(tetrahydro-2H-pyran-4-yl)adamantane-2-carboxamide Hydrochloride]
CNC(=O)[C@H]1C2CC3CC1C[C@@](c1ccc(OC/C(=C/F)CN)cc1)(C3)C2 (single isomer, unassigned) [Compound 6, anti-5-(4-(((E)-2-(Aminomethyl)-3-fluoroallyl)oxy)phenyl)-N-methyladamantane-2-carboxamide Hydrochloride]
